According to patent US10730878B2, “Fused quinoline compounds as PI3K/mTOR inhibitors” (ADVENCHEN PHARMACEUTICALS, LLC, priority 2015, dated 2020):

The molecules below were run against T1, mTor (Homo sapiens, UniProt P42345) (assay: mTor kinase inhibition, % activity at 0.03 μM (kinases panel screening)). Details: 0.03 μM compound.
T1 construct: purchased Millipore/Merck KGA of Europe (panel screening service)
Assay type: biochemical
Excerpt: In vitro kinase inhibition activities included Pi3k and mTor activities can be tested with Millipore/Merck KGA of Europe in their kinases panel screening. Animal antitumor activity testing can be conducted by various cancer xenograft models for a compound of formula I. […]

Molecule	mTor % activity @0.03 μM
5-[16-(4-tert-butylphenyl)-12-ethyl-8,11,13,14,16-pentaazatetracyclo[8.6.0.0^2,^7.0^11,^1^5]hexadeca-1(10),2,4,6,8,12,14-heptaen-4-yl]-N-methylpyridin-2-amine	51%
CCc1nnc2n(-c3ccc(C(C)(C)C#N)cc3)c3c4cc(-c5cnc6[nH]ccc6c5)ccc4ncc3n12 [2-[4-(12-ethyl-4-{(1H-pyrrolo[2,3-b]pyridin-5-yl}-8,11,13,14,16-pentaazatetracyclo-[8.6.0.0^2,^7.0^11,^1^5]hexadec-1(10),2,4,6,8,12,14-heptaen-16-yl)phenyl]-2-methylpropanenitrile]	29%
COc1ccc(-c2ccc3ncc4c(c3c2)n(-c2ccc(C(C)(C)C)cc2)c2nnc(C)n42)cn1 [2-methoxy-5-pyridine; CH3; CH3, CH3; CH3, 16-(4-tert-butylphenyl)-4-(6-methoxypyridin-3-yl)-12-methyl-8,11,13,14,16-pentaazatetra-cyclo[8.6.0.0^2,^7.0^11,^1^5]hexadeca-1(10), 2,4,6,8,12,14-heptaene]	97%
C#CC(C)(C)c1ccc(-n2c3c4cc(-c5ccc(OC)nc5)ccc4ncc3n3c(C)nnc23)cc1 [2-methoxy-5-pyridine; CH3; CH3, CH3; CN, 4-(6-methoxypyridin-3-yl)-12-methyl-16-[4-(2-methylbut-3-yn-2-yl)phenyl]8,11,13,14,16-pentaazatetracyclo[8.6.0.0^2,^7.0^11,^1^5]hexadeca-1(10),2,4,6,8,12,14-heptaene]	98%
COc1ccc(-c2ccc3ncc4c(c3c2)n(-c2ccc(C(C)(C)C)cc2)c2nncn42)cn1 [2-methoxy-5-pyridine; H; CH3, CH3; CH3, 16-(4-tert-butylphenyl)-4-(6-methoxypyridin-3-yl)-8,11,13,14,16-pentaazatetracyclo-[8.6.0.0^2,^7.0^11,^1^5]hexadec-1(10),2,4,6,8,12,14-heptaene]	15%
CC(C)(C#N)c1ccc(-n2c3c4cc(-c5ccnc6[nH]ccc56)ccc4ncc3n3cnnc23)cc1 [2-methyl-2-[4-(4-{1H-pyrrolo[2,3-b]pyridin-4-yl}-8,11,13,14,16-pentaazatetracyclo-[8.6.0.0^2,^7.0^11,^1^5]hexadeca-1(10),2,4,6,8,12,14-heptaen-16-yl)phenyl]propanenitrile]	70%
Cc1nnc2n(-c3ccc(C(C)(C)C#N)cc3)c3c4cc(-c5cnc6[nH]ccc6c5)ccc4ncc3n12 [2-methyl-2-[4-(12-methyl-4-{1H-pyrrolo[2,3-b]pyridin-5-yl}-8,11,13,14,16-pentaazatetra-cyclo[8.6.0.0^2,^7.0^11,^1^5]hexadeca-1(10),2,4,6,8,12,14-heptaen-16-yl)phenyl]propanenitrile]	15%
Cc1nnc2n(-c3ccc(C(C)(C)C)cc3)c3c4cc(-c5cccnc5)ccc4ncc3n12 [3-pyridine; CH3; CH3, CH3; CH3, 16-(4-tert-butylphenyl)-12-methyl-4-(pyridin-3-yl)-8,11,13,14,16-pentaazatetracyclo-[8.6.0.0^2,^7.0^11,^1^5]hexadec-1(10),2,4,6,8,12,14-heptaene]	88%
CC(C)(C)c1ccc(-n2c3c4cc(-c5cccnc5)ccc4ncc3n3cnnc23)cc1 [3-pyridine; H; CH3, CH3; CH3, 16-(4-tert-butylphenyl)-4-(pyridin-3-yl)-8,11,13,14,16-pentaazatetracyclo[8.6.0.0^2,^7.0^11,^1^5]-hexadeca-1(10), 2,4,6,8,12,14-heptaene]	−4%

The next lines start with the values.

mTor % activity @0.03 μM	Molecule
8%	2-amino-N-(5-{16-[4-(1-cyano-1-methylethyl)phenyl]-8,11,13,14,16-pentaazatetra-cyclo[8.6.0.0^2,^7.0^11,^1^5]hexadeca-1(10), 2,4,6,8,12,14-heptaen-4-yl)}pyridin-2-yl)acetamide
102%	5-[16-(4-tert-butylphenyl)-12-ethyl-8,11,13,14,16-pentaazatetracyclo[8.6.0.0^2,^7.0^11,^1^5]hexadeca-1(10),2,4,6,8,12,14-heptaen-4-yl]-N-[2-(morpholin-4-yl)ethyl]pyridin-2-amine
84%	5-[16-(4-tert-butylphenyl)-12-ethyl-8,11,13,14,16-pentaazatetracyclo[8.6.0.0^2,^7.0^11,^1^5]hexadeca-1(10),2,4,6,8,12,14-heptaen-4-yl]-N-[2-(pyrrolidin-1-yl)ethyl]pyridin-2-amine
22%	CC(C)(C)c1ccc(-n2c3c4cc(-c5cnc6ccccc6c5)ccc4ncc3n3cnnc23)cc1 [3-quinoline; H; CH3, CH3; CH3, 16-(4-tert-butylphenyl)-4-(quinolin-3-yl)-8,11,13,14,16-pentaazatetracyclo[8.6.0.0^2,^7.0^11,^1^5]-hexadeca-1(10), 2,4,6,8,12,14-heptaene]
21%	C#CC(C)(C)c1ccc(-n2c3c4cc(-c5ccc(N)nc5)ccc4ncc3n3c(CC)nnc23)cc1 [5-pyridin-2-amine; CH2CH3; CH3, CH3; CN, 5-{12-ethyl-16-[4-(2-methylbut-3-yn-2-yl)phenyl]-8,11,13,14,16-pentaazatetracyclo-[8.6.0.0^2,^7.0^11,^1^5]hexadeca-1(10),2,4,6,8,12,14-heptaen-4-yl}pyridin-2-amine]
34%	Cc1nnc2n(-c3ccc(C(C)(C)C)cc3)c3c4cc(-c5ccc(N)nc5)ccc4ncc3n12 [5-pyridin-2-amine; CH3; CH3, CH3; CH3, 5-[16-(4-tert-butylphenyl)-12-methyl-8,11,13,14,16-pentaazatetracyclo[8.6.0.0^2,^7.0^11,^1^5]-hexadeca-1(10), 2,4,6,8,12,14-heptaen-4-yl]pyridin-2-amine]
64%	Cc1nnc2n(-c3ccc(C(C)(C)C#N)cc3)c3c4cc(-c5ccc(N)nc5)ccc4ncc3n12 [5-pyridin-2-amine; CH3; CH3, CH3; CN]
94%	CCc1nnc2n(-c3ccc(C(C)(C)C#N)cc3)c3c4cc(-c5cncnc5)ccc4ncc3n12 [5-pyrimidine; CH2CH3; CH3, CH3; CN, 2-{4-[12-ethyl-4-(pyrimidin-5-yl)-8,11,13,14,16-pentaazatetracyclo[8.6.0.0^2,^7.0^11,^1^5]-hexadeca-1(10),2,4,6,8,12,14-heptaen-16-yl]phenyl}-2-methylpropanenitrile]
104%	Cc1nnc2n(-c3ccc(C(C)(C)C)cc3)c3c4cc(-c5cncnc5)ccc4ncc3n12 [5-pyrimidine; CH3; CH3, CH3; CH3, 16-(4-tert-butylphenyl)-12-methyl-4-(pyrimidin-5-yl)-8,11,13,14,16-pentaazatetracyclo-[8.6.0.0^2,^7.0^11,^1^5]hexadeca-1(10), 2,4,6,8,12,14-heptaene]
90%	Cc1nnc2n(-c3ccc(C(C)(C)C#N)cc3)c3c4cc(-c5cncnc5)ccc4ncc3n12 [5-pyrimidine; CH3; CH3, CH3; CN, 2-methyl-2-{4-[12-methyl-4-(pyrimidin-5-yl)-8,11,13,14,16-pentaazatetracyclo-[8.6.0.0^2,^7.0^11,^1^5]hexadeca-1(10),2,4,6,8,12,14-heptaen-16-yl]phenyl}propanenitrile]
